Results: patent US6376495B1, “Antidiabetic piperazine derivatives, processes for their preparation and compositions containing them” (Merck Patent Gesellschaft, priority 1998, dated 2002)

Key:
[1] = system: experimental model of non-insulin-dependent diabetes induced in the rat by streptozotocin; test: Study of the hypolipidaemic activity in the rat (total cholesterol, total triglycerides); format: in vivo; conditions: oral route for 7 days, sample 18 h after final administration, diabetic rats 6 months old
Experimental: The hypolipidaemic activity of the compounds of formula I by the oral route was determined on an experimental model of non-insulin-dependent diabetes induced in the rat by streptozotocin.
The model of non-insulin-dependent diabetes is obtained in the rats by a neonatal injection (5 days after birth) of streptozotocin.
The diabetic rats used are 6 months old. The animals are kept, from the day of their birth to the day of the experiment, in an animal house at a regulated temperature of 21 to 22° C. and are subjected to a fixed cycle of light (from 7 h to 19 h) and of darkness (from 19 h to 7 h).
Their diet consisted of a maintenance diet; water and food were provided “ab [sic] libitum”, with the exception of the 18 hours of fasting preceding the withdrawals of the blood samples on which the lipid balances will be carried out.
The rats are treated by the oral route with the compound of Example 1 for 7 days. A 300-μl sample is withdrawn 18 h after the final administration of this compound.
The total cholesterol was quantitatively determined by the CHOE/CHOD/POD Trinder method as an end point (Instrumentation Laboratory reagent [lacuna] on a Monarch plus analyser (Instrumentation Laboratory).
The total triglycerides were quantitatively determined by the GPO/Trinder method as an end point (Sigma Diagnostic reagent) on a Monarch analyser (Instrumentation Laboratory).

[2] = system: experimental model of non-insulin-dependent diabetes induced in the rat by streptozotocin; test: Study of the antidiabetic activity in the rat (glycaemia, oral route); format: in vivo; conditions: diabetic rats 8 weeks old; for % of glycaemia at D1 (percentage of change in the glycaemia with respect to D0): after treatment for 1 day; for % of glycaemia at D4 (percentage of change in the glycaemia with respect to D0): after treatment for 4 days
Experimental: The antidiabetic activity of the compounds of formula I by the oral route was determined on an experimental model of non-insulin-dependent diabetes induced in the rat by streptozotocin.
The model of non-insulin-dependent diabetes is obtained in the rat by a neonatal injection (on the day of birth) of streptozotocin.
The diabetic rats used are 8 weeks old. The animals are kept, from the day of their birth to the day of the experiment, in an animal house at a regulated temperature of 21 to 22° C. and are subjected to a fixed cycle of light (from 7 h to 19 h) and of darkness (from 19 h to 7 h). Their diet consisted of a maintenance diet; water and food were provided “ad libitum”, with the exception of the 2 hours of fasting preceding the tests, where food is withdrawn (post-absorptive state).
The rats are treated by the oral route, during the day, with the test product. Two hours after the final administration of the product and 30 minutes after anaesthetizing the animals with sodium pentobarbital (Nembutal®), a 300-μl blood sample is withdrawn at the end of the tail in order to determine the glycaemia.
at D1 (after treatment for 1 day) with respect to D0 (before treatment); and
at D4 (after treatment for 4 days) with respect to D0 (before treatment) for 2 different administration doses (20 mg/kg/day and 200 mg/kg/day) of active principle.

COc1cccc(N2CCN(CCOc3ccc(CC(=O)O)cc3)CC2)c1 [Example 1, (4-{2-[4-(3-methoxyphenyl)-piperazin-1-yl]ethoxy}phenyl) acetic acid]
melting point: 158 to 160 °C
TOTAL CHOLESTEROL ([1]; in the absence of treatment 90): 79 mg/dL
TOTAL TRIGLYCERIDES ([1]; in the absence of treatment 167): 102 mg/dL
% of glycaemia at D1 (percentage of change in the glycaemia with respect to D0) ([2]; 20 mg/kg/day): −8%
% of glycaemia at D4 (percentage of change in the glycaemia with respect to D0) ([2]; 20 mg/kg/day): −10%
% of glycaemia at D1 (percentage of change in the glycaemia with respect to D0) ([2]; 200 mg/kg/day): −24%
% of glycaemia at D4 (percentage of change in the glycaemia with respect to D0) ([2]; 200 mg/kg/day): −34%
